In patent US10611750B2, “Tetrahydroquinoline compositions as bet bromodomain inhibitors” (FORMA Therapeutics, Inc., priority 2013, dated 2020):

Tests used:
[1] = biological target: T1, BRD4 Bromodomain 1 (BRD4 BD1) (Homo sapiens, UniProt O60885); assay: AlphaScreen binding assay, BRD4 BD1; settings: His-tagged BRD4 BD1 50 nM, biotinylated H4 (1-21) K5/8/12/16 tetra-acetylated peptide 50 nM, compounds listed under IC50 range headings
T1 construct: 44-168 and BRD4 BD2
Procedure: The binding of Example compounds to BRD4 Bromodomain 1 and BRD4 Bromodomain 2 was assessed using 384-well AlphaScreen assay technology. His-epitope tagged BRD4 BD144-168 and BRD4 BD2333-460 were cloned, expressed, and purified to homogeneity. BRD4 BD1 and BRD4 BD2 binding and inhibition was assessed by monitoring the engagement of biotinylated Histone H4 (1-21) K5/8/12/16 tetra-acetylated peptide with the targets using the AlphaScreen technology (PerkinElmer). Specifically, in a 384-well black or white flat bottom plate, BRD4 BD1 (50 nM final) or BRD4 BD2 (100 nM final) was combined with peptide (50 nM final for BD1 or 100 nM final for BD2) in 50 mM HEPES (pH 7.3), 100 mM NaCl, 0.1% (w/v) BSA, and 0.01% (w/v) Triton X-100 either in the presence of DMSO (final 1.25% DMSO) or compound dilution series in DMSO. Alpha streptavidin donor beads and Nickel-chelate acceptor beads were added to a final concentration of 10 μg/ml each. After a minimum of 1 hour equilibration, plates were read on a BMG PHERAstar FS multi-label reader (BMG LabTech). The half maximal inhibitory concentration (IC50) values were calculated using IDBS Activity Base software with a four parameter logistic curve fit by the equation y=A+((B−A)/(1+((C/x)^D))), wherein A denotes the bottom plateau of the curve, B denotes the top plateau of the curve, C denotes the x value at the middle of the curve, D denotes the slope factor, x denotes the original known x values, and y denotes the original known y values. Data was fitted using the Levenburg Marquardt algorithm.

[2] = tested on: acute myelocytic leukemia (AML) cell line MV4-11; assay: Oncology cell growth assay (3-day proliferation, CellTiter-Glo); assay type: cell-based; settings: Homo sapiens, MV4-11, 72 h, MV4-11 cells, 3000 cells/well, compounds listed under IC50 range headings, read-out: MV411 IC50 (gIC50, inhibition of proliferation)
Procedure: The impact of Example compounds on cancer cell proliferation was determined using the acute myelocytic leukemia (AML) cell line MV4-11 (ATCC) in a 3-day proliferation assay. MV4-11 cells were maintained in RPMI 1640 media supplemented with 10% FBS at 37° C. and an atmosphere of 5% CO2. For compound testing, compound dilutions series were prepared in DMSO via a 3-fold serial dilution from 2 mM to 0.001 mM in 384-well white flat bottom plates. The final compound concentrations in the wells were 10, 3.3, 1.1, 0.37, 0.12, 0.041, 0.013 and 0.0045 μM. MV4-11 cells were plated at a density of 3000 cells/well in final volume of 50 μl culture media and incubated for 72 hours. […] Luminescent signal from the CellTiter-Glo assay was read on an EnVision multilabel plate reader (PerkinElmer). Values for the concentration that inhibited cell growth by 50% (gIC50) between the DMSO control and background control (no cells) were determined using IDBS Activity Base software with a four parameter logistic curve fit by the equation y=A+((B−A)/(1+((C/x)^D))), wherein A denotes the bottom plateau of the curve, B denotes the top plateau of the curve, C denotes the x value at the middle of the curve, D denotes the slope factor, x denotes the original known x values, and y denotes the original known y values. Data was fitted using the Levenburg Marquardt algorithm.

Row | Compound | IC50 [1] [nM] | IC50 [2] [nM]
1 | CC(=O)N1c2c(F)cc(-c3cn(C)nn3)c(OC3CCC3)c2CC[C@@H]1C [I-126, (S)-1-(5-cyclobutoxy-8-fluoro-2-methyl-6-(1-methyl-1H-1,2,3-triazol-4-yl)-3,4-dihydroquinolin-1(2H)-yl)ethanone] | 1000 to 10000 | > 1000
2 | C[C@H]1CCc2c(ccc(-c3nnc(N)s3)c2OC2CCC2)N1C(=O)C1CC1 [I-127, (S)-(6-(5-amino-1,3,4-thiadiazol-2-yl)-5-cyclobutoxy-2-methyl-3,4-dihydroquinolin-1(2H)-yl)(cyclopropyl)methanone] | 100 to 1000 | < 500
3 | C[C@H]1CCc2c(ccc(-c3c[nH]nn3)c2OC2CCC2)N1C(=O)C1CC1 [I-128, (S)-(5-cyclobutoxy-2-methyl-6-(1H-1,2,3-triazol-4-yl)-3,4-dihydroquinolin-1(2H)-yl)(cyclopropyl)methanone] | 100 to 1000 | 500 to 1000
4 | COC(=O)N1c2ccc(-c3csc(C(N)=O)n3)c(OC3CCC3)c2CC[C@@H]1C [I-129, (S)-methyl-6-(2-carbamoylthiazol-4-yl)-5-cyclobutoxy-2-methyl-3,4-dihydroquinoline-1(2H)-carboxylate] | 100 to 1000 | < 500
5 | CNC(=O)c1nc(-c2ccc3c(c2OC2CCC2)CC[C@H](C)N3C(=O)OC)cs1 [I-130, (S)-methyl 5-cyclobutoxy-2-methyl-6-(2-(methylcarbamoyl)thiazol-4-yl)-3,4-dihydroquinoline-1(2H)-carboxylate] | 100 to 1000 | < 500
6 | COC(=O)N1c2ccc(-c3csc(NC(C)=O)n3)c(OC3CCC3)c2CC[C@@H]1C [I-131, (S)-methyl 6-(2-acetamidothiazol-4-yl)-5-cyclobutoxy-2-methyl-3,4-dihydroquinoline-1(2H)-carboxylate] | 1000 to 10000 | 500 to 1000
7 | C[C@H]1CCc2c(ccc(-c3cn(C)nn3)c2Oc2ccccc2C#N)N1C(=O)C1CC1 [I-154, (S)-2-(1-(cyclopropanecarbonyl)-2-methyl-6-(1-methyl-1H-1,2,3-triazol-4-yl)-1,2,3,4-tetrahydroquinolin-5-yloxy)benzonitrile] | 1000 to 10000 | < 500
8 | COc1cccc(Oc2c(-c3cnn(C4CCNCC4)c3)ccc3c2CC[C@H](C)N3C(C)=O)c1 [I-156, (S)-1-(5-(3-methoxyphenoxy)-2-methyl-6-(1-(piperidin-4-yl)-1H-pyrazol-4-yl)-3,4-dihydroquinolin-1(2H)-yl)ethanone] | 100 to 1000 | < 500
9 | C[C@H]1CCc2c(ccc(-c3cnn(C4CCNCC4)c3)c2Oc2ccccc2Cl)N1C(=O)C1CC1 [I-165, (S)-(5-(2-chlorophenoxy)-2-methyl-6-(1-(piperidin-4-yl)-1H-pyrazol-4-yl)-3,4-dihydroquinolin-1(2H)-yl)(cyclopropyl)methanone] | 100 to 1000 | < 500
10 | C[C@H]1CCc2c(ccc(-c3cnn(C4CCNCC4)c3)c2Oc2cccc(F)c2)N1C(=O)C1CC1 [I-171, (S)-cyclopropyl(5-(3-fluorophenoxy)-2-methyl-6-(1-(piperidin-4-yl)-1H-pyrazol-4-yl)-3,4-dihydroquinolin-1(2H)-yl)methanone] | 100 to 1000 | < 500
11 | C[C@H]1CCc2c(ccc(-c3cnn(C4CCNCC4)c3)c2Oc2ccc(F)c(F)c2)N1C(=O)C1CC1 [I-172, (S)-cyclopropyl(5-(3,4-difluorophenoxy)-2-methyl-6-(1-(piperidin-4-yl)-1H-pyrazol-4-yl)-3,4-dihydroquinolin-1(2H)-yl)methanone] | 100 to 1000 | < 500
12 | C[C@H]1CCc2c(ccc(-c3cnn(C4CNC4)c3)c2Oc2cccc(F)c2)N1C(=O)C1CC1 [I-173, (S)-(6-(1-(azetidin-3-yl)-1H-pyrazol-4-yl)-5-(3-fluorophenoxy)-2-methyl-3,4-dihydroquinolin-1(2H)-yl)(cyclopropyl)methanone] | 100 to 1000 | < 500
13 | C[C@H]1CCc2c(ccc(-c3cnn(C4CNC4)c3)c2Oc2ccc(F)c(F)c2)N1C(=O)C1CC1 [I-174, (S)-(6-(1-(azetidin-3-yl)-1H-pyrazol-4-yl)-5-(3,4-difluorophenoxy)-2-methyl-3,4-dihydroquinolin-1(2H)-yl)(cyclopropyl)methanone] | 100 to 1000 | < 500
14 | C[C@H]1CCc2c(ccc(-c3cnn(C4CNC4)c3)c2Oc2ccccc2)N1C(=O)C1CC1 [I-175, (S)-(6-(1-(azetidin-3-yl)-1H-pyrazol-4-yl)-2-methyl-5-phenoxy-3,4-dihydroquinolin-1(2H)-yl)(cyclopropyl)methanone] | 100 to 1000 | < 500
15 | COC(=O)N1c2ccc(-c3cnn(C4CCNCC4)c3)c(Oc3ccc(F)c(F)c3)c2CC[C@@H]1C [I-176, (S)-methyl 5-(3,4-difluorophenoxy)-2-methyl-6-(1-(piperidin-4-yl)-1H-pyrazol-4-yl)-3,4-dihydroquinoline-1(2H)-carboxylate] | 100 to 1000 | < 500

The next lines start with the values.

Row | IC50 [1] [nM] | IC50 [2] [nM] | Compound
16 | 100 to 1000 | < 500 | COC(=O)N1c2ccc(-c3cnn(C4CNC4)c3)c(Oc3cccc(Cl)c3)c2CC[C@@H]1C [I-177, (S)-methyl 6-(1-(azetidin-3-yl)-1H-pyrazol-4-yl)-5-(3-chlorophenoxy)-2-methyl-3,4-dihydroquinoline-1(2H)-carboxylate]
17 | 100 to 1000 | < 500 | C[C@H]1CCc2c(ccc(-c3cnn(C4CNC4)c3)c2Oc2cccc(Cl)c2)N1C(=O)C1CC1 [I-178, (S)-(6-(1-(azetidin-3-yl)-1H-pyrazol-4-yl)-5-(3-chlorophenoxy)-2-methyl-3,4-dihydroquinolin-1 (2H)-yl)(cyclopropyl)methanone]
18 | 100 to 1000 | < 500 | C[C@H]1CCc2c(ccc(-c3cnn(C4CCNCC4)c3)c2Oc2cccc(Cl)c2)N1C(=O)C1CC1 [I-179, (S)-(5-(3-chlorophenoxy)-2-methyl-6-(1-(piperidin-4-yl)-1H-pyrazol-4-yl)-3,4-dihydroquinolin-1 (2H)-yl)(cyclopropyl)methanone]
19 | 100 to 1000 | < 500 | COC(=O)N1c2ccc(-c3cnn(C4CNC4)c3)c(Oc3cc(F)cc(F)c3)c2CC[C@@H]1C [I-180, (S)-methyl 6-(1-(azetidin-3-yl)-1H-pyrazol-4-yl)-5-(3,5-difluorophenoxy)-2-methyl-3,4-dihydroquinoline-1(2H)-carboxylate]
20 | 100 to 1000 | < 500 | C[C@H]1CCc2c(ccc(-c3cnn(C4CNC4)c3)c2Oc2cc(F)cc(F)c2)N1C(=O)C1CC1 [I-181, (S)-(6-(1-(azetidin-3-yl)-1H-pyrazol-4-yl)-5-(3,5-difluorophenoxy)-2-methyl-3,4-dihydroquinolin-1(2H)-yl)(cyclopropyl)methanone]
21 | 100 to 1000 | < 500 | COC(=O)N1c2ccc(-c3cnn(C4CCNCC4)c3)c(Oc3cc(F)cc(F)c3)c2CC[C@@H]1C [I-182, (S)-methyl 5-(3,5-difluorophenoxy)-2-methyl-6-(1-(piperidin-4-yl)-1H-pyrazol-4-yl)-3,4-dihydroquinoline-1(2H)-carboxylate]
22 | 100 to 1000 | < 500 | C[C@H]1CCc2c(ccc(-c3cnn(C4CCNCC4)c3)c2Oc2cc(F)cc(F)c2)N1C(=O)C1CC1 [I-183, (S)-cyclopropyl(5-(3,5-difluorophenoxy)-2-methyl-6-(1-(piperidin-4-yl)-1H-pyrazol-4-yl)-3,4-dihydroquinolin-1(2H)-yl)methanone]
23 | 100 to 1000 | < 500 | C[C@H]1CCc2c(ccc(-c3nnc(N)s3)c2Oc2ccccc2)N1C(=O)C1CC1 [I-184, (S)-(6-(5-amino-1,3,4-thiadiazol-2-yl)-2-methyl-5-phenoxy-3,4-dihydroquinolin-1(2H)-yl)(cyclopropyl)methanone]
